Assay results: ChEMBL document CHEMBL6153136, “Cyclic Peptide Natural Product Inspired Inhibitors of the Free-Living Amoeba Balamuthia mandrillaris” (J Nat Prod, 2025)
≈ marks a conversion by molar mass, not a printed value. Square brackets hold non-standard residues; d marks the D form. Peptide text beside a SMILES is read from it. dOrn = NCCC[C@@H](N)C(=O)O; Orn = NCCC[C@H](N)C(=O)O

Legend:
[1] = Hemolytic activity in human red blood cells assessed as hemolysis at 100 uM incubated for 1 hr by absorbance based assay relative to control; format: toxicity, cell-based, Erythrocyte; conditions: read-out: Activity
[2] = test system: Balamuthia mandrillaris; experiment: Anti-amoebic activity against Balamuthia mandrillaris CDC V093 (ATCC 50209) assessed as reduction in amoebae viability measured after 72 hrs by luminescent based CellTiter-Glo assay; format: functional, organism-based
[3] = test system: Naegleria fowleri; experiment: Anti-amoebic activity against Naegleria fowleri assessed as reduction in amoebae viability measured for 72 hrs by luminescent based CellTiter-Glo assay; format: functional, organism-based
[4] = test system: Lactococcus lactis; experiment: Antibacterial activity against Lactococcus lactis measured after 24 hrs; format: functional, organism-based
[5] = test system: Acanthamoeba castellanii; experiment: Anti-amoebic activity against Acanthamoeba castellanii assessed as reduction in amoebae viability measured for 72 hrs by luminescent based CellTiter-Glo assay; format: functional, organism-based
[6] = test system: A549; experiment: Cytotoxicity against human A549 cells assessed as reduction in cell viability incubated for 72 hrs by CellTiter-Glo reagent based assay; format: functional; conditions: A549, 72 h
[7] = Selectivity index, ratio of IC50 for cytotoxicity against human A549 cells to IC50 for anti-amoebic activity against Balamuthia mandrillaris CDC V093 (ATCC 50209) assessed as reduction in amoebae viability; format: toxicity, cell-based; conditions: read-out: Ratio IC50
[8] = test system: Balamuthia mandrillaris; experiment: Anti-amoebic activity against Balamuthia mandrillaris assessed as reduction in amoebae viability measured after 72 hrs by luminescent based CellTiter-Glo assay; format: functional, organism-based

Row | Compound | hemolysis at 1 h, 100 µM [1] [%] | IC50 [2] [µM] | other results
1 | CC(C)[C@H](N)C(=O)N[C@H](Cc1ccccc1)C(=O)N[C@@H](Cc1ccccc1)C(=O)N[C@H](CCCN)C(=O)N[C@H](C(=O)N[C@H](CCCNC(=N)N)C(=O)O)[C@@H](C)O (H-V[dF]F[dOrn]T[dR]-OH) | < 10 | > 20 | –
2 | CC(C)[C@@H]1NC(=O)[C@@H](CO)NC(=O)[C@H](CCCNC(=N)N)NC(=O)[C@@H](Cc2ccccc2)NC1=O | – | – | IC50 [3]: 6 µg/mL (≈ 12.3 µM)
3 | C=C(NC(=O)[C@@H](NC(=O)[C@H](Cc1c[nH]cn1)NC(=O)[C@@H](NC(=O)[C@H](CO)NC(=O)[C@@H]1CS[C@@H](C)[C@H]2NC(=O)C(=C)NC(=O)[C@H](NC(=O)[C@H](CCCCN)NC(=O)[C@H](CCSC)NC(=O)[C@H](CC(N)=O)NC(=O)[C@@H]3CS[C@@H](C)[C@@H](NC(=O)[C@H](CCCNN)NC(=O)[C@@H]4CS[C@@H](C)[C@@H](NC(=O)[C@@H]5CSC[C@@H](NC(=O)/C(=C\C)NC(=O)[C@@H](N)[C@@H](C)CC)C(=O)N[C@@H]([C@@H](C)CC)C(=O)NC(=C)C(=O)N[C@@H]([C@@H](C)CC)C(=O)N5)C(=O)N5CCC[C@H]5C(=O)NCC(=O)N4)C(=O)NCC(=O)N[C@@H](C)C(=O)N[C@@H]([C@@H](C)CC)C(=O)N[C@@H](CCSC)C(=O)NCC(=O)N3)[C@H](C)SC[C@H](NC2=O)C(=O)N[C@@H](Cc2c[nH]cn2)C(=O)N1)[C@@H](C)CC)C(C)C)C(=O)N[C@@H](CCCCN)C(=O)O | – | – | IC50 [4]: 4.5 µg/mL (≈ 1.34 µM)
4 | CC(C)[C@@H]1NC(=O)[C@@H](CCCCN)NC(=O)[C@H]([C@@H](C)O)NC(=O)[C@@H](CCCCN)NC(=O)[C@H](Cc2ccccc2)NC(=O)[C@@H](Cc2ccccc2)NC1=O | < 10 | 3.9 | –
5 | CC(C)[C@@H]1NC(=O)[C@@H](CCCNC(=N)N)NC(=O)[C@H]([C@@H](C)O)NC(=O)[C@@H](CCCCN)NC(=O)[C@H](Cc2ccccc2)NC(=O)[C@@H](Cc2ccccc2)NC1=O | < 10 | 4.1 | –
6 | NCCC[C@@H]1NC(=O)[C@@H](CCCN)NC(=O)[C@H](Cc2ccccc2)NC(=O)[C@@H](Cc2ccccc2)NC(=O)[C@H](Cc2ccccc2)NC(=O)[C@@H](CCCN)NC1=O (cyclo(F[dF]F[dOrn][Orn][dOrn])) | – | – | IC50 [5]: 5.3 µg/mL (≈ 6.76 µM)
7 | CC(C)[C@@H]1NC(=O)[C@@H](CCCNC(=N)N)NC(=O)[C@H](C)NC(=O)[C@@H](CCCN)NC(=O)[C@H](Cc2ccccc2)NC(=O)[C@@H](Cc2ccccc2)NC1=O (cyclo(A[dR]V[dF]F[dOrn])) | < 10 | 8.5 | IC50 [6]: > 100 µM
8 | CC(C)[C@@H]1NC(=O)[C@@H](C)NC(=O)[C@H]([C@@H](C)O)NC(=O)[C@@H](CCCN)NC(=O)[C@H](Cc2ccccc2)NC(=O)[C@@H](Cc2ccccc2)NC1=O | – | > 20 | –
9 | C[C@@H]1NC(=O)[C@@H](CCCNC(=N)N)NC(=O)[C@H]([C@@H](C)O)NC(=O)[C@@H](CCCN)NC(=O)[C@H](Cc2ccccc2)NC(=O)[C@@H](C)NC1=O | – | > 20 | –
10 | CC(C)[C@@H]1NC(=O)[C@@H](CCCCN)NC(=O)[C@H]([C@@H](C)O)NC(=O)[C@@H](CCCN)NC(=O)[C@H](Cc2ccccc2)NC(=O)[C@@H](Cc2ccccc2)NC1=O | < 10 | 3.8 | IC50 [6]: > 100 µM
11 | C[C@@H]1NC(=O)[C@@H](CCCNC(=N)N)NC(=O)[C@H]([C@@H](C)O)NC(=O)[C@@H](CCCN)NC(=O)[C@H](Cc2ccccc2)NC(=O)[C@@H](Cc2ccccc2)NC1=O | – | > 20 | –
12 | CC(C)[C@@H]1NC(=O)[C@@H](CCCNC(=N)N)NC(=O)[C@H]([C@@H](C)O)NC(=O)[C@@H](CCCN)NC(=O)[C@H](C)NC(=O)[C@@H](Cc2ccccc2)NC1=O | – | > 20 | –
13 | CC(C)[C@@H]1NC(=O)[C@@H](CCCNC(=N)N)NC(=O)[C@H]([C@@H](C)O)NC(=O)[C@@H](CCCN)NC(=O)[C@H](Cc2ccccc2)NC(=O)[C@@H](Cc2ccccc2)NC1=O | < 10 | 5 | selectivity ratio at 72 h [7]: > 20; IC50 [6]: > 100 µM; IC50 [8]: 4 µg/mL (≈ 5.23 µM)
14 | CC(C)[C@@H]1NC(=O)[C@@H](CCCNC(=N)N)NC(=O)[C@H]([C@@H](C)O)NC(=O)[C@@H](C)NC(=O)[C@H](Cc2ccccc2)NC(=O)[C@@H](Cc2ccccc2)NC1=O | < 10 | 11.9 | –
